# Data reported in PubChem BioAssay (NCI).
#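 1) Cells in 96-well plates. 2) Compound, 48 h, 5 concentrations. 3) Linear interpolation between surrounding doses. 4) Unreached endpoint = highest concentration. TGI: total growth inhibition.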
# How the values were obtained:
# Assay in all cases: growth of human tumour cells (NCI), 48 h
# 786-0 renal = system: 786-0 renal
# CCRF-CEM leukemia = system: CCRF-CEM leukemia
# COLO 205 colon = system: COLO 205 colon
# HCT-15 colon = system: HCT-15 colon
# HL-60(TB) leukemia = system: HL-60(TB) leukemia
# HT29 colon = system: HT29 colon
# K-562 leukemia = system: K-562 leukemia
# MDA-MB-231 breast = system: MDA-MB-231 breast
# MDA-MB-435 = system: MDA-MB-435
# MOLT-4 leukemia = system: MOLT-4 leukemia
# NCI-H460 lung = system: NCI-H460 lung
# NCI-H522 lung = system: NCI-H522 lung
# OVCAR-4 ovarian = system: OVCAR-4 ovarian
# OVCAR-8 ovarian = system: OVCAR-8 ovarian
# SNB-75 CNS = system: SNB-75 CNS
# SW-620 colon = system: SW-620 colon
# TK-10 renal = system: TK-10 renal
# UACC-257 melanoma = system: UACC-257 melanoma
# UACC-62 melanoma = system: UACC-62 melanoma
compound,measurement,setting,value
COc1cc(/C=C2/CCCc3ccccc3C2=O)cc(OC)c1OC,TGI,786-0 renal,> 62 µM
same,TGI,CCRF-CEM leukemia,> 100 µM
same,TGI,COLO 205 colon,> 60.8 µM
same,TGI,HCT-15 colon,> 100 µM
same,TGI,HL-60(TB) leukemia,> 100 µM
same,TGI,HT29 colon,> 100 µM
same,TGI,K-562 leukemia,> 23.8 µM
same,TGI,MDA-MB-231 breast,> 51.4 µM
same,TGI,MDA-MB-435,> 70.6 µM
same,TGI,MOLT-4 leukemia,> 35 µM
same,TGI,NCI-H460 lung,> 100 µM
same,TGI,NCI-H522 lung,41 µM
same,TGI,OVCAR-4 ovarian,> 100 µM
same,TGI,OVCAR-8 ovarian,> 69.8 µM
same,TGI,SNB-75 CNS,> 49.9 µM
same,TGI,SW-620 colon,> 100 µM
same,TGI,TK-10 renal,> 100 µM
same,TGI,UACC-257 melanoma,> 56.1 µM
same,TGI,UACC-62 melanoma,> 67.4 µM
O=C1c2ccccc2-c2nc(-c3cccs3)cc3c2c1nc1ccccc13,TGI,786-0 renal,> 100 µM
same,TGI,CCRF-CEM leukemia,> 100 µM
same,TGI,COLO 205 colon,37.5 µM
same,TGI,HCT-15 colon,57.1 µM
same,TGI,HL-60(TB) leukemia,26.5 µM
same,TGI,HT29 colon,62.6 µM
same,TGI,K-562 leukemia,> 100 µM
same,TGI,MDA-MB-231 breast,> 100 µM
same,TGI,MDA-MB-435,4.51 µM
same,TGI,MOLT-4 leukemia,> 100 µM
same,TGI,NCI-H460 lung,> 100 µM
same,TGI,NCI-H522 lung,83.5 µM
same,TGI,OVCAR-4 ovarian,> 100 µM
same,TGI,OVCAR-8 ovarian,> 100 µM
same,TGI,SNB-75 CNS,> 100 µM
same,TGI,SW-620 colon,31 µM
same,TGI,TK-10 renal,> 100 µM
same,TGI,UACC-257 melanoma,37.3 µM
same,TGI,UACC-62 melanoma,19.3 µM
CCCCCCCCCCCCCCCCC(=O)NCC(=O)NCC(=O)NC(Cc1ccccc1)C(=O)Oc1ccc([N+](=O)[O-])cc1 (stereo not drawn),TGI,786-0 renal,72.9 µM
same,TGI,CCRF-CEM leukemia,44.9 µM
same,TGI,COLO 205 colon,35.8 µM
same,TGI,HCT-15 colon,34.5 µM
same,TGI,HL-60(TB) leukemia,> 100 µM
same,TGI,HT29 colon,88 µM
same,TGI,K-562 leukemia,56.6 µM
same,TGI,MDA-MB-231 breast,38.9 µM
same,TGI,MDA-MB-435,> 100 µM
same,TGI,MOLT-4 leukemia,38.7 µM
same,TGI,NCI-H460 lung,38.6 µM
same,TGI,NCI-H522 lung,55.2 µM
same,TGI,OVCAR-4 ovarian,> 100 µM
same,TGI,OVCAR-8 ovarian,38.7 µM
same,TGI,SNB-75 CNS,> 100 µM
same,TGI,SW-620 colon,37.2 µM
same,TGI,TK-10 renal,> 100 µM
same,TGI,UACC-257 melanoma,57.4 µM
same,TGI,UACC-62 melanoma,40.5 µM
SCc1ccc(-c2ccc(CS)cc2)cc1,TGI,786-0 renal,59.5 µM
same,TGI,CCRF-CEM leukemia,10.7 µM
same,TGI,COLO 205 colon,37.4 µM
same,TGI,HCT-15 colon,33.3 µM
same,TGI,HL-60(TB) leukemia,12.4 µM
same,TGI,HT29 colon,69.8 µM
same,TGI,K-562 leukemia,26.9 µM
same,TGI,MDA-MB-231 breast,31 µM
same,TGI,MDA-MB-435,22.8 µM
same,TGI,MOLT-4 leukemia,6.37 µM
same,TGI,NCI-H460 lung,25.1 µM
same,TGI,NCI-H522 lung,37.7 µM
same,TGI,OVCAR-4 ovarian,17.5 µM
same,TGI,OVCAR-8 ovarian,53.7 µM
same,TGI,SNB-75 CNS,28.1 µM
same,TGI,SW-620 colon,60 µM
same,TGI,TK-10 renal,> 61.3 µM
same,TGI,UACC-257 melanoma,45.2 µM
same,TGI,UACC-62 melanoma,41.2 µM
CSc1ccc(/C=C/C(=O)c2nc3ccccc3[nH]2)cc1,TGI,786-0 renal,43.6 µM
same,TGI,CCRF-CEM leukemia,> 100 µM
same,TGI,COLO 205 colon,96 µM
same,TGI,HCT-15 colon,40.6 µM
same,TGI,HL-60(TB) leukemia,43.1 µM
same,TGI,HT29 colon,46.2 µM
same,TGI,K-562 leukemia,> 100 µM
same,TGI,MDA-MB-231 breast,24.3 µM
same,TGI,MDA-MB-435,35.8 µM
same,TGI,MOLT-4 leukemia,18.6 µM
same,TGI,NCI-H460 lung,45.2 µM
same,TGI,NCI-H522 lung,33.5 µM
same,TGI,OVCAR-4 ovarian,76.9 µM
same,TGI,OVCAR-8 ovarian,> 100 µM
same,TGI,SNB-75 CNS,43.8 µM
same,TGI,SW-620 colon,50.3 µM
same,TGI,TK-10 renal,31.5 µM
same,TGI,UACC-257 melanoma,67.1 µM
same,TGI,UACC-62 melanoma,36.2 µM
CC(=O)N(CN1C(=O)CCC1C(=O)O)c1ccc(C)cc1 (stereo not drawn),TGI,786-0 renal,> 100 µM
same,TGI,CCRF-CEM leukemia,> 100 µM
same,TGI,COLO 205 colon,> 100 µM
same,TGI,HCT-15 colon,> 100 µM
same,TGI,HL-60(TB) leukemia,> 100 µM
same,TGI,HT29 colon,> 100 µM
same,TGI,K-562 leukemia,> 100 µM
same,TGI,MDA-MB-231 breast,> 100 µM
same,TGI,MDA-MB-435,> 100 µM
same,TGI,MOLT-4 leukemia,> 100 µM
same,TGI,NCI-H460 lung,> 100 µM
same,TGI,NCI-H522 lung,> 100 µM
same,TGI,OVCAR-4 ovarian,> 100 µM
same,TGI,OVCAR-8 ovarian,> 100 µM
same,TGI,SNB-75 CNS,> 100 µM
same,TGI,SW-620 colon,> 100 µM
same,TGI,TK-10 renal,> 100 µM
same,TGI,UACC-257 melanoma,> 100 µM
same,TGI,UACC-62 melanoma,> 100 µM
CC(=O)Oc1c(C)cc2c(c1C)C(C)(C)CN2C(=O)C(C)(C)C,TGI,786-0 renal,> 100 µM
same,TGI,CCRF-CEM leukemia,> 100 µM
same,TGI,COLO 205 colon,> 100 µM
same,TGI,HCT-15 colon,> 100 µM
same,TGI,HL-60(TB) leukemia,> 100 µM
same,TGI,HT29 colon,> 100 µM
same,TGI,K-562 leukemia,> 100 µM
same,TGI,MDA-MB-231 breast,> 100 µM
same,TGI,MDA-MB-435,> 100 µM
same,TGI,MOLT-4 leukemia,> 100 µM
same,TGI,NCI-H460 lung,> 100 µM
same,TGI,NCI-H522 lung,> 100 µM
same,TGI,OVCAR-4 ovarian,> 100 µM
same,TGI,OVCAR-8 ovarian,> 100 µM
same,TGI,SNB-75 CNS,31 µM
same,TGI,SW-620 colon,> 100 µM
same,TGI,TK-10 renal,> 100 µM
same,TGI,UACC-257 melanoma,> 100 µM
same,TGI,UACC-62 melanoma,> 100 µM
Nc1nc(Cl)cc(NCC2(CO)CC(CCCc3ccccc3)C2)n1 (stereo not drawn),TGI,786-0 renal,> 100 µM
same,TGI,CCRF-CEM leukemia,> 100 µM
same,TGI,COLO 205 colon,> 100 µM
same,TGI,HCT-15 colon,> 100 µM
same,TGI,HL-60(TB) leukemia,> 100 µM
same,TGI,HT29 colon,> 100 µM
same,TGI,K-562 leukemia,> 100 µM
same,TGI,MDA-MB-231 breast,> 100 µM
same,TGI,MDA-MB-435,> 100 µM
same,TGI,MOLT-4 leukemia,> 100 µM
same,TGI,NCI-H460 lung,> 100 µM
same,TGI,NCI-H522 lung,> 100 µM
same,TGI,OVCAR-4 ovarian,> 100 µM
same,TGI,OVCAR-8 ovarian,> 100 µM
same,TGI,SNB-75 CNS,98.2 µM
same,TGI,SW-620 colon,> 100 µM
same,TGI,TK-10 renal,> 100 µM
same,TGI,UACC-257 melanoma,> 93.7 µM
same,TGI,UACC-62 melanoma,> 100 µM
O=c1[nH]c(=S)n(-c2cccc3ccccc23)c(O)c1/C=C1\C=Nc2ccccc21,TGI,786-0 renal,3.55 µM
same,TGI,CCRF-CEM leukemia,5.35 µM
same,TGI,COLO 205 colon,3.4 µM
same,TGI,HCT-15 colon,3.45 µM
same,TGI,HL-60(TB) leukemia,5.27 µM
same,TGI,HT29 colon,5.03 µM
same,TGI,K-562 leukemia,7.11 µM
same,TGI,MDA-MB-231 breast,5.14 µM
same,TGI,MDA-MB-435,6.69 µM
same,TGI,MOLT-4 leukemia,5.02 µM
same,TGI,NCI-H460 lung,5.38 µM
same,TGI,NCI-H522 lung,10.2 µM
same,TGI,OVCAR-4 ovarian,7.42 µM
same,TGI,OVCAR-8 ovarian,6.86 µM
same,TGI,SNB-75 CNS,6.42 µM
same,TGI,SW-620 colon,6.73 µM
same,TGI,TK-10 renal,6.06 µM
same,TGI,UACC-257 melanoma,5.51 µM
same,TGI,UACC-62 melanoma,3.26 µM
O=[N+]([O-])c1ccc(CSc2c3ccccc3nc3ccccc23)cc1,TGI,786-0 renal,4.22 µM
same,TGI,CCRF-CEM leukemia,> 22.9 µM
same,TGI,COLO 205 colon,16.9 µM
same,TGI,HCT-15 colon,27.5 µM
same,TGI,HL-60(TB) leukemia,22.8 µM
same,TGI,HT29 colon,6.36 µM
same,TGI,K-562 leukemia,> 34.9 µM
same,TGI,MDA-MB-231 breast,27.4 µM
same,TGI,MDA-MB-435,14.3 µM
same,TGI,MOLT-4 leukemia,> 21.2 µM
same,TGI,NCI-H460 lung,46.9 µM
same,TGI,NCI-H522 lung,3.62 µM
same,TGI,OVCAR-4 ovarian,31.1 µM
same,TGI,OVCAR-8 ovarian,10.8 µM
same,TGI,SNB-75 CNS,33.1 µM
same,TGI,SW-620 colon,> 24.4 µM
same,TGI,TK-10 renal,17.4 µM
same,TGI,UACC-257 melanoma,10.5 µM
same,TGI,UACC-62 melanoma,29.3 µM
Nc1nc(N)c2c(CCc3ccc(C(=O)N[C@@H](CCC(=O)O)C(=O)O)cc3)ccnc2n1,TGI,786-0 renal,> 100 µM
same,TGI,CCRF-CEM leukemia,> 100 µM
same,TGI,COLO 205 colon,> 100 µM
same,TGI,HCT-15 colon,> 100 µM
same,TGI,HL-60(TB) leukemia,> 100 µM
same,TGI,HT29 colon,> 100 µM
same,TGI,K-562 leukemia,> 100 µM
same,TGI,MDA-MB-231 breast,> 100 µM
same,TGI,MDA-MB-435,> 100 µM
same,TGI,MOLT-4 leukemia,> 100 µM
same,TGI,NCI-H460 lung,> 100 µM
same,TGI,NCI-H522 lung,> 100 µM
same,TGI,OVCAR-4 ovarian,> 100 µM
same,TGI,OVCAR-8 ovarian,> 100 µM
same,TGI,SNB-75 CNS,> 100 µM
same,TGI,SW-620 colon,> 100 µM
same,TGI,TK-10 renal,> 100 µM
same,TGI,UACC-257 melanoma,> 100 µM
same,TGI,UACC-62 melanoma,> 100 µM
Clc1ccc(-c2c3nc(c(-c4ccc(Cl)cc4)c4ccc([nH]4)c(-c4ccc(Cl)cc4)c4nc(c(-c5ccc(Cl)cc5)c5ccc2[nH]5)C=C4)C=C3)cc1,TGI,786-0 renal,> 100 µM
same,TGI,CCRF-CEM leukemia,> 100 µM
same,TGI,COLO 205 colon,> 100 µM
same,TGI,HCT-15 colon,> 100 µM
same,TGI,HL-60(TB) leukemia,> 100 µM
same,TGI,HT29 colon,> 100 µM
same,TGI,K-562 leukemia,> 100 µM
same,TGI,MDA-MB-231 breast,> 100 µM
same,TGI,MDA-MB-435,> 100 µM
same,TGI,MOLT-4 leukemia,> 100 µM
same,TGI,NCI-H460 lung,> 100 µM
same,TGI,NCI-H522 lung,> 100 µM
same,TGI,OVCAR-4 ovarian,> 100 µM
same,TGI,OVCAR-8 ovarian,> 100 µM
same,TGI,SNB-75 CNS,63.4 µM
same,TGI,SW-620 colon,> 100 µM
same,TGI,TK-10 renal,> 100 µM
same,TGI,UACC-257 melanoma,> 100 µM
same,TGI,UACC-62 melanoma,> 100 µM
